The record followed here is patent publication US9409864B2, “Sulfonamide TRPA1 receptor antagonists” (ARIO PHARMA LIMITED, priority 2013, dated 2016).

Structures are written as SMILES.

The target of this experiment is T1, native human TRPA1 receptors (Homo sapiens, UniProt O75762).
T1 construct: stably expressing native human TRPA1 receptors were used; endogenous in cells; host or cells: A549 human lung adenocarcinoma epithelial cell line
In words: PF-4840154 (1 μM)-induced Ca2+ fluorescence measurements in A549 cell line. Type of experiment: cell-based. Particulars: for inhibition at 10 µM: 10 μM compound against 1 μM PF-4840154, A549 cells. As to the method:
PF-4840154 (1 μM)-Induced Ca^2+ Fluorescence Measurements in A549 Cell Line
Human lung adenocarcinoma epithelial cell line (A549) stably expressing native human TRPA1 receptors were used. The cells were cultured in medium consisting of Eagle's minimal essential medium (EMEM) supplemented with 10% fetal bovine serum (FBS), penicillin (100 IU/ml), streptomycin ([…]), L-glutamine (2 mM), sodium bicarbonate (2.5 g/L) and HEPES (24 mM). Cells were kept at 37° C. in 5% CO2/humidified air. For the experiments the cells were seeded at a density of 16,000 cells/well into 96-well black, clear-bottom plates. After 24 hours incubation the cells were loaded with medium supplemented with 2.5 mM probenecid, 3 μM of the calcium sensitive fluorescent dye Fluo-4 AM and 0.01% pluronic acid, for 30 min at 37° C. Afterwards the loading solution was aspirated and 100 μl/well of assay buffer: Hank's Balanced Salt Solution (HBSS) supplemented with 2.5 mM probenecid and 500 μM Brilliant Black (Aldrich) was added. Stock solutions (100 mM) of ligands were made in Dimethyl Sulfoxide (DMSO) and stored at −20° C. Serial dilutions of ligands for experimental use were made in HBSS buffer. After placing both plates (cell culture and compound plate) into the FlexStation II (Molecular Device, Union City, Calif. 94587, US), fluorescence changes were measured. On-line additions were carried out in a volume of […]. To facilitate drug diffusion into the wells in antagonist type experiments, the studies were performed at 36.5° C. and three cycles of mixing (25 μl from each well moved up and down 3 times) were performed immediately after antagonist injection to the wells. All exemplified compounds were tested alone (to address residual agonistic activity) and against 1 μM of PF-4840154 to address inhibitory activity at the initial concentration of 10 μM. For selected examples the entire inhibitory concentration-response curves were constructed and the IC50 value calculated.
PF-4840154 (1 μM) increased [Ca^2+] in the vast majority (95%) of cultured cells which were thereby identified as TRPA1 expressing cells.

The mark [1] stands for this setting: against PF-4840154 (1 μM)-evoked [Ca2+]i mobilization, A549 cells.
Setting [2] is: against PF-4840154 (1 μM), A549 cells, cells printed in μM.

T1 sequence (O75762 whole entry): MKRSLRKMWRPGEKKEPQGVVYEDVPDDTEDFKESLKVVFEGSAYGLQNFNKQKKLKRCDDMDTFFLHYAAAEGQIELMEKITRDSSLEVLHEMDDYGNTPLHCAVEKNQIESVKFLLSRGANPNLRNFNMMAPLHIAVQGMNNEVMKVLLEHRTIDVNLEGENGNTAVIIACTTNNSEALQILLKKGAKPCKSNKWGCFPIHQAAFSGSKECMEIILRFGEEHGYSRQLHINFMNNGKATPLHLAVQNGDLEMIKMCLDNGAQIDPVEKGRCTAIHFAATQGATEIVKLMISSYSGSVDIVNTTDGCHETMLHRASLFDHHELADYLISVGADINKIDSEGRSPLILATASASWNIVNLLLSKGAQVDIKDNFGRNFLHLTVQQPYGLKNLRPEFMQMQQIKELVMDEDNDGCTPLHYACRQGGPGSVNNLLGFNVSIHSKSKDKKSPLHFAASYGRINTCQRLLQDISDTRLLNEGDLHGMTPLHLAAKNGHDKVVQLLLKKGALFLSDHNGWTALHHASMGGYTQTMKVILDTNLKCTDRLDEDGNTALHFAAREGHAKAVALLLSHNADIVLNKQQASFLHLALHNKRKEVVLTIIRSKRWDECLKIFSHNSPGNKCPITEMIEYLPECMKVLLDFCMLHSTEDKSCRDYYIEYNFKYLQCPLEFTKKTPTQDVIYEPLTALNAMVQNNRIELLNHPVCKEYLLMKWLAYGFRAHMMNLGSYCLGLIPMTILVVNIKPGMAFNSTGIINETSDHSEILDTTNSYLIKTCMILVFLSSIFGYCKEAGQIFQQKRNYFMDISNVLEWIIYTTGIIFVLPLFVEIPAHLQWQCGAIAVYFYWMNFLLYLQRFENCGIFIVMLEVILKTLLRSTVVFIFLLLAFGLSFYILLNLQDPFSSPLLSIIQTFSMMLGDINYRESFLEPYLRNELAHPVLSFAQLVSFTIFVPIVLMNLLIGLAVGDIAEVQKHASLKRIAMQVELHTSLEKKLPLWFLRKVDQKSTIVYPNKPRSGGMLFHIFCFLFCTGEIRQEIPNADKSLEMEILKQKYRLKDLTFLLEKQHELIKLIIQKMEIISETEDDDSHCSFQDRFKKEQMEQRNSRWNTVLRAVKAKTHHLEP

Turning to `CCN(C1(C(=O)NCc2cc(OC)nc(-c3ccc(C(F)(F)F)cc3)c2)CC1)S(=O)(=O)c1ccc(F)cc1` [Example 48, 1-[ethyl-(4-fluorophenyl)sulfonyl-amino]-N-[[2-methoxy-6-[4-(trifluoromethyl)phenyl]-4-pyridyl]methyl]cyclopropanecarboxamide], testing at 10 µM gave an inhibition of 96%. Further, the midpoint of inhibition under setting [1], the IC50, lay at 0.26 µM. The matching figures for `C=C(C(=O)NCc1cc(-c2ccc(OC(F)(F)F)cc2)nc(N2CCOCC2)c1)N(CC)S(=O)(=O)c1ccc(Cl)cc1` [Example 17, 2-[(4-chlorophenyl)sulfonyl-ethyl-amino]-N-[[2-morpholino-6-[4-(trifluoromethoxy)phenyl]-4-pyridyl]methyl]prop-2-enamide]: 98% and 0.12 µM.

In the case of `CCN(C1(C(=O)NCc2cc(-c3ccc(C(F)(F)F)cc3)nc(N3CCN(CC4CC4)CC3)c2)CC1)S(=O)(=O)c1ccc(Cl)s1` [Example 65, 1-[(5-chloro-2-thienyl)sulfonyl-ethyl-amino]-N-[[2-[4-(cyclopropylmethyl)piperazin-1-yl]-6-[4-(trifluoromethyl)phenyl]-4-pyridyl]methyl]cyclopropanecarboxamide], the inhibition (in general, how much of the control response was suppressed) at 10 µM stood at 100%. Further, half-maximal inhibition under setting [1] (IC50) required 0.327 µM. The matching figures for `CCN(C1(C(=O)NCc2cc(-c3ccc(C(F)(F)F)cc3)nc(N3CCN(C4CCCCC4)CC3)c2)CC1)S(=O)(=O)c1ccc(Cl)s1` [Example 67, 1-[(5-chloro-2-thienyl)sulfonyl-ethyl-amino]-N-[[2-(4-cyclohexylpiperazin-1-yl)-6-[4-(trifluoromethyl)phenyl]-4-pyridyl]methyl]cyclopropanecarboxamide]: 95% and 0.59 µM.

Take `CC(C)CNc1nc(N2CCN(CC3CCCOC3)CC2)ncc1C(=O)NCc1ccccc1` (stereo not shown) [PF-4840154, reference compound]: the “cultured cells with increased [Ca2+]” value (PF-4840154 1 μM, A549 cells) is recorded as 95%. `CCN(C1(C(=O)NCc2cc(-c3ccc(C(F)(F)F)cc3)nc(N3CCN(CC4CC4)CC3)c2)CC1)S(=O)(=O)c1ccc(F)cc1` [Example 64, N-[[2-[4-(cyclopropylmethyl)piperazin-1-yl]-6-[4-(trifluoromethyl)phenyl]-4-pyridyl]methyl]-1-[ethyl-(4-fluorophenyl)sulfonyl-amino]cyclopropanecarboxamide] registered an inhibition at 10 µM of 99%. In addition, the IC50 (in general, the concentration needed to halve the response being measured) under setting [1] is 0.338 µM. The matching figures for `CCN(C1(C(=O)NCc2ccnc(-c3ccc(C(F)(F)F)cc3)c2)CC1)S(=O)(=O)c1ccc(F)cc1` [Example 25, 1-[ethyl-(4-fluorophenyl)sulfonyl-amino]-N-[[2-[4-(trifluoromethyl)phenyl]-4-pyridyl]methyl]cyclopropanecarboxamide]: 100% and 0.076 µM. For `C/C=C(/C(=O)NCc1ccnc(-c2ccc(OC(F)(F)F)cc2)c1)N(CC)S(=O)(=O)c1ccc(F)cc1` [Example 22, (Z)-2-[ethyl-(4-fluorophenyl)sulfonyl-amino]-N-[[2-[4-(trifluoromethoxy)phenyl]-4-pyridyl]methyl]but-2-enamide] the same measures were 97% and 0.246 µM. Consider `C=C(C(=O)NCc1cc[n+]([O-])c(-c2ccc(C(F)(F)F)cc2)c1)N(CC)S(=O)(=O)c1ccc(F)cc1` [Example 54, 2-[ethyl-(4-fluorophenyl)sulfonyl-amino]-N-[[1-oxido-2-[4-(trifluoromethyl)phenyl]pyridin-1-ium-4-yl]methyl]prop-2-enamide], for which the inhibition at 10 µM came to 47%. Also, the IC50 under setting [2] is above 10 µM.

Take `CCN(C1(C(=O)NCc2cc(-c3ccc(C(F)(F)F)cc3)nc(N3CCN(C4CCCCC4)CC3)c2)CC1)S(=O)(=O)c1ccc(F)cc1` [Example 66, N-[[2-(4-cyclohexylpiperazin-1-yl)-6-[4-(trifluoromethyl)phenyl]-4-pyridyl]methyl]-1-[ethyl-(4-fluorophenyl)sulfonyl-amino]cyclopropanecarboxamide]: the inhibition at 10 µM was found to be 93%. Also, the IC50 under setting [2] was found to be 1.5 µM. `C/C=C(/C(=O)NCc1ccnc(-c2ccc(OC(F)(F)F)cc2)c1)N(C)S(=O)(=O)c1ccc(F)cc1` [Example 21, (Z)-2-[(4-fluorophenyl)sulfonyl-methyl-amino]-N-[[2-[4-(trifluoromethoxy)phenyl]-4-pyridyl]methyl]but-2-enamide] yielded an inhibition at 10 µM of 100%. Further, inhibition under setting [1] was half-maximal at 0.323 µM (IC50). In the case of `CCN(C1(C(=O)NCc2cccc(-c3ccc(OC(F)(F)F)cc3)c2)CC1)S(=O)(=O)c1ccc(F)cc1` [Example 31, 1-[ethyl-(4-fluorophenyl)sulfonyl-amino]-N-[[3-[4-(trifluoromethoxy)phenyl]phenyl]methyl]cyclopropanecarboxamide], the inhibition at 10 µM was determined as 100%. In addition, under setting [1], inhibition was half-maximal at 0.057 µM (IC50). With `C=C(C(=O)NCc1ccnc(-c2ccc(OC(F)(F)F)cc2)c1)N(C)S(=O)(=O)c1ccc(F)cc1` [Example 2, 2-[(4-fluorophenyl)sulfonyl-methyl-amino]-N-[[2-[4-(trifluoromethoxy)phenyl]-4-pyridyl]methyl]prop-2-enamide], the inhibition at 10 µM is 98%. Further, under setting [1], half-maximal inhibition (IC50) required 0.135 µM. For `CCN(C1(C(=O)NCc2ccnc(-c3ccc(OC(F)(F)F)cc3)c2)CC1)S(=O)(=O)c1ccc(Cl)s1` [Example 28, 1-[(5-chloro-2-thienyl)sulfonyl-ethyl-amino]-N-[[2-[4-(trifluoromethoxy)phenyl]-4-pyridyl]methyl]cyclopropanecarboxamide] the same measures were 100% and 0.129 µM. Compound `C/C=C(/C(=O)NCc1cccc(-c2ccc(C(F)(F)F)cc2)c1)N(CC)S(=O)(=O)c1ccc(Cl)cc1` [Example 24, (Z)-2-[(4-chlorophenyl)sulfonyl-ethyl-amino]-N-[[3-[4-(trifluoromethyl)phenyl]phenyl]methyl]but-2-enamide] gave an inhibition at 10 µM of 97%. Under setting [1], this compound showed an IC50 of 0.724 µM. For `C=C(C(=O)NCc1ccnc(-c2ccc(C(F)(F)F)cc2)c1)N(CC)S(=O)(=O)c1ccc(F)c(F)c1` [Example 35, 2-[(3,4-difluorophenyl)sulfonyl-ethyl-amino]-N-[[2-[4-(trifluoromethyl)phenyl]-4-pyridyl]methyl]prop-2-enamide] the same measures were 100% and 0.058 µM. The matching figures for `C=C(C(=O)NCc1cccc(-c2ccc(C(F)(F)F)cc2)c1)N(CC)S(=O)(=O)c1ccc(F)cc1` [Example 8, 2-[ethyl-(4-fluorophenyl)sulfonyl-amino]-N-[[3-[4-(trifluoromethyl)phenyl]phenyl]methyl]prop-2-enamide]: 100% and 0.076 µM. In the case of `O=C(NCc1cc(-c2ccc(C(F)(F)F)cc2)nc(N2CCCC2)c1)C1(NS(=O)(=O)c2ccc(F)cc2)CC1` [Example 32, 1-[(4-fluorophenyl)sulfonylamino]-N-[[2-pyrrolidin-1-yl-6-[4-(trifluoromethyl)phenyl]-4-pyridyl]methyl] cyclopropanecarboxamide], the inhibition at 10 µM came to 80%. The compound also returned an IC50 under setting [2] above 4 µM. Consider `C=C(C(=O)NCc1ccnc(-c2ccc(OC(F)(F)F)cc2)c1)N(CC)S(=O)(=O)c1ccc(F)cc1` [Example 3, 2-[(4-fluorophenyl)sulfonyl-ethyl-amino]-N-[[2-[4-(trifluoromethoxy)phenyl]-4-pyridyl]methyl]prop-2-enamide], for which the inhibition at 10 µM was found to be 95%. The same compound registered an IC50 under setting [1] of 0.093 µM.

On to `C=C(C(=O)NCc1cc(-c2ccc(OC(F)(F)F)cc2)nc(N2CCN(CC3CC3)CC2)c1)N(CC)S(=O)(=O)c1ccc(F)cc1` [Example 63, N-[[2-[4-(cyclopropylmethyl)piperazin-1-yl]-6-[4-(trifluoromethoxy)phenyl]-4-pyridyl]methyl]-2-[ethyl-(4-fluorophenyl)sulfonyl-amino]prop-2-enamide], for which at 10 µM the inhibition was 99%. Inhibition under setting [1] was half-maximal at 0.175 µM (IC50).

Turning to `C=C(C(=O)NCc1cccc(-c2ccc(OC(F)(F)F)cc2)c1)N(CC)S(=O)(=O)c1ccc(Cl)s1` [Example 55, 2-[(5-chloro-2-thienyl)sulfonyl-ethyl-amino]-N-[[3-[4-(trifluoromethoxy)phenyl]phenyl]methyl]prop-2-enamide], the inhibition at 10 µM stood at 100%. Also, 0.031 µM corresponded to half-maximal inhibition under setting [1] (IC50). The matching figures for `CCN(C1(C(=O)NCc2ccnc(-c3ccc(OC(F)(F)F)cc3)c2)CC1)S(=O)(=O)c1ccc(Cl)cc1` [Example 27, 1-[(4-chlorophenyl)sulfonyl-ethyl-amino]-N-[[2-[4-(trifluoromethoxy)phenyl]-4-pyridyl]methyl]cyclopropanecarboxamide]: 100% and 0.135 µM.
